# Results taken from patent US12624057B2, “Bisphosphonate quinolone conjugates and uses thereof” (BIOVINC, LLC, priority 2016, dated 2026).
# Entries after “also recorded” stand apart in the source; their conditions may differ. Where two headings read alike, the source gives them in different places.
# What was measured:
# [1] = tested on: biofilms of P. aeruginosa strain ATCC-15442; assay: Preformed biofilms on HA discs, P. aeruginosa; format: cell-based, Pseudomonas aeruginosa
# Description: (§1) Antimicrobial susceptibility testing of BP-ciprofloxacin against preformed biofilms of S. aureus strain ATCC-6538 and P. aeruginosa strain ATCC-15442: Strains cultured on appropriate agar plates (Columbia agar plate for S. aureus; MacConkey agar plate for P. aeruginosa) were transferred to liquid microbiological media and incubated for 24 h/37° C. under aerobic conditions. After incubation, strains were diluted to the density of 1 MF. The microbial dilutions were introduced to wells of 24-well plates containing HA discs as a substrate, or simply to polystyrene wells where the bottom surface of the wells served as the substrate for biofilm development. Strains were incubated at 37° C. for 4 hrs. Next, the microbe-containing solutions were removed from the wells. The surfaces, HA discs and polystyrene plates, were gently rinsed to leave adhered cells and to remove planktonic or loosely-bound microbes. Surfaces prepared in this manner were immersed in fresh TSB medium containing 0.24-125 mg/L of BP-ciprofloxacin conjugate. After 24 hrs of incubation at 37° C. the surfaces were rinsed using physiological saline solution and transferred to 1 mL of 0.5% saponin (Sigma-Aldrich, St Louis, MO). The surfaces were vortex-mixed vigorously for 1 minute to detach cells. Subsequently, all microbial suspensions were diluted 10 to 10^9 times. Each dilution ([…]) was cultured on the appropriate stable medium (MacConkey, Columbia for P. aeruginosa and S. aureus, respectively) and incubated at 37-C for 24 hours. After this time, the microbial colonies were counted and the number of cells forming biofilm was assessed. Results were presented as the mean number of CFU per square millimeter surface±standard error of the mean. To estimate the exact surface area of HA discs, x-ray tomographic analysis was applied. For estimation of the area of test plate bottoms, the equation for circle area: πr2 was applied.
# Antimicrobial susceptibility testing of 6 against preformed biofilms of S. aureus strain ATCC-6538 and P. aeruginosa strain ATCC-15442: Strains cultured on appropriate agar plates (Columbia agar plate for S. aureus; MacConkey agar plate for P. aeruginosa) were transferred to liquid microbiological media and incubated for 24 hrs/37° C. under aerobic conditions. After incubation, strains were diluted to the density of 1 MF. The microbial dilutions were introduced to wells of 24-well plates containing HA discs as a substrate, or simply to polystyrene wells where the bottom surface of the wells served as the substrate for biofilm development. Strains were incubated at 37° C. for 4 hrs. Next, the microbe-containing solutions were removed from the wells. The surfaces, HA discs and polystyrene plates, were gently rinsed to leave adhered cells and to remove planktonic or loosely-bound microbes. […] After 24 hrs of incubation at 37° C. the surfaces were rinsed using physiological saline solution and transferred to 1 mL of 0.5% saponin (Sigma-Aldrich, St Louis, MO). The surfaces were vortex-mixed vigorously for 1 minute to detach cells. Subsequently, all microbial suspensions were diluted 10-1 to 10-9 times. Each dilution ([…]) was cultured on the appropriate stable medium (MacConkey, Columbia for P. aeruginosa and S. aureus, respectively) and incubated at 37° C. for 24 hrs. After this time, the microbial colonies were counted and the number of cells forming biofilm was assessed. Results were presented as the mean number of CFU per square millimeter surface±standard error of the mean. […]
# [2] = Hydroxyapatite (HA) binding assay, spectroscopic analysis of supernatant; format: physicochemical; conditions: supernatant at 0 hr versus 24 hrs, TSB medium
# Description: Solutions containing BP-ciprofloxacin and HA spherules were introduced to wells of 24-well plate. […] Plates were shaken automatically in the spectrometer prior to assessment. Next, plates were left for 24 h/37° C./shaking. After 24 hours, absorbance was measured once again. To assess the relative concentration of the conjugate at 0 hr and 24 hrs, values of absorbance taken in the beginning and at the end of experiment were compared.
# Spectroscopic analysis of 6 and 11 in Tryptic Soy Broth (TSB) microbiological media with the addition of HA spherules: Various conjugate concentrations were introduced to HA powder (spherules) suspended in TSB microbiological medium. Solutions containing BP-ciprofloxacin an HA spherules were introduced to wells of a 24-well plate. […] Plates were shaken automatically in the spectrometer prior to assessment. Next, plates were left for 24 hrs/37° C./shaking. After 24 hrs, absorbance was measured once again. To assess the relative concentration of the conjugate at 0 hr and 24 hrs, values of absorbance taken in the beginning and at the end of experiment were compared. The excitation slit, emission slit, integration time, and increment were optimized based on the concentration of samples.
# [3] = tested on: biofilms of S. aureus strain ATCC-6538; assay: Preformed biofilms on polystyrene, S. aureus; format: cell-based, Staphylococcus aureus
# Description: as §1, with “Results were presented as the mean number of CFU per square millimeter surface±standard error of the mean. To estimate the exact surface area of HA discs, x-ray tomographic analysis was applied. For estimation of the area of test plate bottoms, the equation for circle area: πr2 was applied.” left out
# Antimicrobial susceptibility testing of 6 against preformed biofilms of S. aureus strain ATCC-6538 and P. aeruginosa strain ATCC-15442: Strains cultured on appropriate agar plates (Columbia agar plate for S. aureus; MacConkey agar plate for P. aeruginosa) were transferred to liquid microbiological media and incubated for 24 hrs/37° C. under aerobic conditions. […] After this time, the microbial colonies were counted and the number of cells forming biofilm was assessed. […]
# [4] = tested on: Aggregatibacter actinomycetemcomitans biofilms on titanium implants; assay: Rat jawbone peri-implant osteomyelitis model, first animal experiment; format: in vivo, Sprague-Dawley rats; conditions: conjugate, 0.3 mg/kg ×3 over a week (0.9 mg/kg total)
# [5] = tested on: planktonic S. aureus strain ATCC-6538; assay: Antimicrobial susceptibility testing in acidic versus basic/physiological pH; format: cell-based, Staphylococcus aureus; conditions: acidic (pH 5) versus basic/physiological (pH 7.4)
# Description: (§2) Antimicrobial susceptibility testing of BP-ciprofloxacin against planktonic cultures of S. aureus strain ATCC-6538 in acidic versus basic pH: This experimental setting was performed in the same manner as described previously for disc diffusion testing, but microbiological media was adjusted to pH 7.4 and pH 5 using KOH or HCL solution and measured using a universal pH-indicator (Merck, Poland).
# as §2, with “6” for “BP-ciprofloxacin”, “physiological” for “basic”
Structure (SMILES),activity against P. aeruginosa biofilm (in words) [1],adsorption to hydroxyapatite (HA) [2],adsorption to hydroxyapatite (HA) ([2]; listed as BCC),adsorption to hydroxyapatite (HA) ([2]; listed as BP-ciprofloxacin),minimal biofilm inhibitory concentration (MBIC50) ([3]; polystyrene substrate (Example 1)),minimal biofilm inhibitory concentration (MBIC50) ([3]; polystyrene substrate (Example 5)),"MBIC90 ([3]; polystyrene substrate, tested range of concentrations)",bacterial killing [4],recovery of bacteria (in words) [4],recovery of bacteria (in words) ([4]; listed as BP-ciprofloxacin),concentration at which bactericidal ([1]; acidic and basic conditions (Example 1)),concentration at which bactericidal ([1]; acidic and physiological conditions (Example 5)),activity against P. aeruginosa biofilm (in words) ([1]; listed as conjugate),"concentration at which most effective ([1]; physiological pH, also effective at acidic pH)",effect of pH on antimicrobial activity / concentration to reach MIC50 [5],effect of pH on antimicrobial activity / concentration to reach MIC50 ([5]; listed as BP-ciprofloxacin)
"O=C(O)c1cn(C2CC2)c2cc(N3CCNCC3)c(F)cc2c1=O [ciprofloxacin, reference compound]",no inhibitory or bactericidal activity; also recorded: inactive under either acidic or physiological conditions,,,,,,,,,,,,,,,
"O=C(O)c1cn(C2CC2)c2cc(N3CCN(C(=O)Oc4ccc(CC(P(=O)(O)O)P(=O)(O)O)cc4)CC3)c(F)cc2c1=O [Compound 6, 1-cyclopropyl-7-(4-((4-(2,2-diphosphonoethyl)phenoxy)carbonyl)piperazin-1-yl)-6-fluoro-4-oxo-1,4-dihydroquinoline-3-carboxylic acid]",,significant adsorption and retention of the conjugate by HA; also recorded: effective adsorption and retention to HA spherules,taken up by the HA beads; also recorded: confirms adsorption of conjugate to HA,significant adsorption and retention of the conjugate by HA,15.6 to 31.2 µg/mL,15.6 to 31.2 µg/mL,no MBIC90 was observed for either pathogen,100%,no recoverable bacteria,no recovery of Aa; also recorded: no recoverable bacteria,50 µg/mL,50 µg/mL,improved bactericidal activity in basic conditions; also recorded: improved bactericidal activity in physiological conditions,8 µg/mL,half the conjugate concentration; also recorded: slightly improved profile in acidic conditions,half the conjugate concentration; also recorded: improved bactericidal profile in acidic
